Assay results published in patent US10154976B2, “System and method for delivering protease inhibitors” (Bordoloi Biotech, LLC, priority 2013, dated 2018).
One block for each compound: values may come before it.

Legend:
[1] = system: fibrin clot; test: Fibrin clot weight in a medium containing no plasmin (PBS only); parameters: species or system Bovine; conditions: 3 percent Ca-TA but without any plasmin; by Day-3 and Day-4
Description: Incubated at 37 C. […] Repeated till the clots completely disappeared.

[2] = molecular target: T1, plasmin (Homo sapiens, UniProt P00747); test: Gravimetric fibrin clot degradation by plasmin, single 48 hour incubation; assay type: biochemical; parameters: TA delays the conversion of plasminogen to plasmin; purchased Sigma P1867
T1 sequence (P00747 97-580 limits assumed): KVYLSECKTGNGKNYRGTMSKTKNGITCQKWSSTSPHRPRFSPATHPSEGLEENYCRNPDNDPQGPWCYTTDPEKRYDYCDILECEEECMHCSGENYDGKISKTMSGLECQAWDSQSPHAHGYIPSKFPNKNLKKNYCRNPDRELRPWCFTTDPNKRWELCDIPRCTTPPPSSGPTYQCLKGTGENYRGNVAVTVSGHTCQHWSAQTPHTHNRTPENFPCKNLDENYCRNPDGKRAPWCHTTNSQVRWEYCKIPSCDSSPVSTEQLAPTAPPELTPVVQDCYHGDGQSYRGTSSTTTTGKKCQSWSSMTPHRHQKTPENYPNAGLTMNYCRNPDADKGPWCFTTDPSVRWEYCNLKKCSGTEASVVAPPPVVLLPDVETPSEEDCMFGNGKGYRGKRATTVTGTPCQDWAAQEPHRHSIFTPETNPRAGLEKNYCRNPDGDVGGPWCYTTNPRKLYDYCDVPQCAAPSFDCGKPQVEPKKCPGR
T1 sequence (P00747 581-810 limits assumed): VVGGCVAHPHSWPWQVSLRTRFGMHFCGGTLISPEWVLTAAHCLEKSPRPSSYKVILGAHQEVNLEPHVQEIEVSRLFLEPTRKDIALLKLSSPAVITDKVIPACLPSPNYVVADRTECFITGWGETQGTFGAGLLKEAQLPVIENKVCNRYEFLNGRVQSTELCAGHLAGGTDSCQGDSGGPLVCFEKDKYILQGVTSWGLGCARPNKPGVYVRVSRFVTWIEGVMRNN

[3] = molecular target: T1, plasmin; test: Gravimetric fibrin clot degradation in plasmin medium freshly exchanged every 24 hours;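 note: fibrin clots formed from bovine fibrinogen and thrombin in 96-well plates, weighed each day after plasmin exposure, percent degradation relative to original clot weight, with PBS-only no-plasmin controls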
Description: Also, a gravimetric in vitro method has been developed for a degradation study of a fibrin sealant in a plasmin medium at pH 7.4 and 37° C., where the medium has been freshly exchanged every twenty-four hours. Further investigation into the described degradation of fibrin sealant was undertaken for up to four consecutive days.
A preparation of fibrinogen solution was prepared as described herein: • 1. Prepared a 10 percent solution of fibrinogen by dissolving 1.4 gms of bovine fibrinogen (Sigma F8630) in 14 ml of PBS. The solution was incubated at 37° C. with occasional swirling for 1 hour or till fibrinogen is completely dissolved. • 2. Molecular weight of TA is 157 grams. Three and half millimolar (0.55 mg TA/ml) suspension of 5 percent and 30 percent TA/PLGA were prepared by dispersing 50 mg of 5 percent loaded TA/PLGA and 8.3 mg of 30 percent loaded TA/PLGA in 4.5 ml of 10 percent fibrinogen solution, respectively, Table 7. A 10 percent Fibrinogen solution without TA was used as the negative control.
Next, the fibrin clots in the ninety-six well plate were prepared as follows: • 1. Two and a half mg of Thrombin (600 units/mg) were dissolved in 1 ml of 375 mM CaCl2 solution in PBS (1500 U/ml). Seven microliters (10.5 U) were added to each well of the labeled 96 well plates. • 3. The fibrinogen solutions (with no TA/PLGA that is 0 percent, 5 percent loaded TA/PLGA and 30 percent loaded TA/PLGA) were mixed well and 100 microliter aliquots of 10 percent fibrinogen with or without TA/PLGA were added to the wells containing thrombin solution. […] The plates were incubated at 37° C. temperature for one hour. Final concentration of CaCl2 was 25 mM. The plate was stored at 4° C. overnight after the clot was formed.
Next, plasmin was added to the fibrin clots to begin the enzymatic degradation of the fibrin clots by plasmin as described herein: • 1. A 300× plasmin solution was prepared by dissolving 500 micrograms in 500 microliter PBS. A 2× stock was prepared by diluting 150 times in PBS and adding 100 microliters to each well of the 96 well plate. The final 1× concentration was 3.3 micrograms/ml in the solution. A no-plasmin PBS only control was used for each condition. • 2. Incubation was at 37° C. At every 24 hours, the 96 well plate was centrifuged at 1,000 rpm for five minutes at room temperature. The supernatant plasmin solutions were aspirated out from each well with micropipette leaving the clots at the bottom of the well. • 3. A set of fibrin clots for each condition each day were taken out for measuring their degradation by plasmin by weighing. Fresh 100 microliter of plasmin solution was added to the rest of the clots. Fibrin clots were removed for measuring their weights each day until the clots were completely degraded in the wells.
Data was collected as follows: • 1. The clots were picked up from the well with a pair of forceps and weighed. The percent degradation was calculated by 100−(Average wt of the plasmin treated clot/actual weight of the clot×100). • 2. The clots were placed on a glass slide and photographed.
The clot or sealant was exchanged with fresh plasmin solution of 3.3 micrograms/ml every 24 hours.
The clots were irrigated and exchanged with fresh plasmin solution of 3.3 micrograms/ml every 24 hours.

[4] = Day 0, 3 percent Ca-TA (169.5 mE, 30 mg/ml), no PLGA, plasmin 3.3 μg/ml exchanged every 24 hours, pH 7.4, 37° C.
[5] = Day 1, 3 percent Ca-TA, no PLGA, plasmin 3.3 μg/ml exchanged every 24 hours, pH 7.4, 37° C.
[6] = Day 2, 3 percent Ca-TA, no PLGA, plasmin 3.3 μg/ml exchanged every 24 hours, pH 7.4, 37° C.
[7] = Day 3, 3 percent Ca-TA, no PLGA, plasmin 3.3 μg/ml exchanged every 24 hours, pH 7.4, 37° C.
[8] = Day 4, 3 percent Ca-TA, no PLGA, plasmin 3.3 μg/ml exchanged every 24 hours, pH 7.4, 37° C.
[9] = TA 0.10 mM, plasmin 6.6 μg/ml, 37° C., 48 hours
[10] = TA 0.25 mM, plasmin 6.6 μg/ml, 37° C., 48 hours
[11] = TA 0.50 mM, plasmin 6.6 μg/ml, 37° C., 48 hours
[12] = TA 1.00 mM, plasmin 6.6 μg/ml, 37° C., 48 hours
[13] = Day 0, Aprotinin 1500 KIU without PLGA-2, plasmin 3.3 micrograms/ml fresh every 24 hours, 37 C
[14] = Day 1, Aprotinin 1500 KIU without PLGA-2, plasmin 3.3 micrograms/ml fresh every 24 hours, 37 C
[15] = Day 2, Aprotinin 1500 KIU without PLGA-2, plasmin 3.3 micrograms/ml fresh every 24 hours, 37 C
[16] = Day 3, Aprotinin 1500 KIU without PLGA-2, plasmin 3.3 micrograms/ml fresh every 24 hours, 37 C
[17] = Day 4, Aprotinin 1500 KIU without PLGA-2, plasmin 3.3 micrograms/ml fresh every 24 hours, 37 C

concentration adequate to give a stable clot without any significant degradation ([2]; same manner as FIG. 5 with Ca-TA (FIG. 12)): about 0.1 mE
increase in volume or weight of clot, of its original weight ([3]; 3 percent Ca-TA, plasmin solution, on Day-1 and Day-2): more than 50%
Average Weight of fibrin clot [3, 4]: 113.0 mg
Fibrin clot weight, set A [3, 4]: 113 mg
Fibrin clot weight, set B [3, 4]: 113 mg
Fibrin clot weight, set C [3, 4]: 113 mg
percent degradation [3, 4]: 0%
Average Weight of fibrin clot [3, 5]: 179.7 mg
Fibrin clot weight, set A [3, 5]: 175 mg
Fibrin clot weight, set B [3, 5]: 160 mg
Fibrin clot weight, set C [3, 5]: 204 mg
Average Weight of fibrin clot [3, 6]: 185.0 mg
Fibrin clot weight, set A [3, 6]: 172 mg
Fibrin clot weight, set B [3, 6]: 174 mg
Fibrin clot weight, set C [3, 6]: 209 mg
Average Weight of fibrin clot [3, 7]: 123.3 mg
Fibrin clot weight, set A [3, 7]: 130 mg
Fibrin clot weight, set B [3, 7]: 100 mg
Fibrin clot weight, set C [3, 7]: 140 mg
Average Weight of fibrin clot [3, 8]: 0.0 mg
Fibrin clot weight, set A [3, 8]: 0 mg
Fibrin clot weight, set B [3, 8]: 0 mg
Fibrin clot weight, set C [3, 8]: 0 mg
percent degradation [3, 8]: 100%
Compound: NCC1CCC(C(=O)[O-])CC1.NCC1CCC(C(=O)[O-])CC1.[Ca+2] (stereo not drawn) [Ca-TA, Calcium Tranexamate]
increase in volume or weight of clot [1]: more than 50%

Average Weight of fibrin clot [2, 9]: 95.3 mg
Fibrin clot weight, set A [2, 9]: 96 mg
Fibrin clot weight, set B [2, 9]: 99 mg
Fibrin clot weight, set C [2, 9]: 91 mg
Percentage Degradation [2, 9]: 11.8%
Average Weight of fibrin clot [2, 10]: 98.0 mg
Fibrin clot weight, set A [2, 10]: 108 mg
Fibrin clot weight, set B [2, 10]: 104 mg
Fibrin clot weight, set C [2, 10]: 82 mg
Percentage Degradation [2, 10]: 9.3%
Average Weight of fibrin clot [2, 11]: 105.3 mg
Fibrin clot weight, set A [2, 11]: 102 mg
Fibrin clot weight, set B [2, 11]: 106 mg
Fibrin clot weight, set C [2, 11]: 108 mg
Percentage Degradation [2, 11]: 2.5%
Average Weight of fibrin clot [2, 12]: 104.7 mg
Fibrin clot weight, set A [2, 12]: 100 mg
Fibrin clot weight, set B [2, 12]: 108 mg
Fibrin clot weight, set C [2, 12]: 106 mg
Percentage Degradation [2, 12]: 3.0%
concentration sufficient for maximum activity (resistance against fibrin clot degradation by plasmin) ([2]; TA concentration, plasmin 6.6 μg/ml, 37° C., 48 hours): 0.1 mM
concentration sufficient for maximum activity, stated in ppm ([2]; plasmin 6.6 μg/ml, 37° C., 48 hours): 157 ppm
Compound: NC[C@H]1CC[C@H](C(=O)O)CC1 [TA, trans-4-aminomethyl-cyclohexane-1-carboxylic acid]

Average Weight of fibrin clot [3, 13]: 109.13 mg
Fibrin clot weight, set A [3, 13]: 109.30 mg
Fibrin clot weight, set B [3, 13]: 108.50 mg
Fibrin clot weight, set C [3, 13]: 109.60 mg
percent degradation [3, 13]: 0.00%
Average Weight of fibrin clot [3, 14]: 100.60 mg
Fibrin clot weight, set A [3, 14]: 100.20 mg
Fibrin clot weight, set B [3, 14]: 98.10 mg
Fibrin clot weight, set C [3, 14]: 103.50 mg
percent degradation [3, 14]: 7.82%
Average Weight of fibrin clot [3, 15]: 15.03 mg
Fibrin clot weight, set A [3, 15]: 14.60 mg
Fibrin clot weight, set B [3, 15]: 13.80 mg
Fibrin clot weight, set C [3, 15]: 16.70 mg
percent degradation [3, 15]: 86.22%
Average Weight of fibrin clot [3, 16]: 0.00 mg
Fibrin clot weight, set A [3, 16]: 0.00 mg
Fibrin clot weight, set B [3, 16]: 0.00 mg
Fibrin clot weight, set C [3, 16]: 0.00 mg
percent degradation [3, 16]: 100.00%
Average Weight of fibrin clot [3, 17]: 0.00 mg
Fibrin clot weight, set A [3, 17]: 0.00 mg
Fibrin clot weight, set B [3, 17]: 0.00 mg
Fibrin clot weight, set C [3, 17]: 0.00 mg
percent degradation [3, 17]: 100.00%
Compound: Aprotinin
